Experimental findings from patent US6962942B2, “Azacycloalkanone serine protease inhibitors” (3-Dimensional Pharmaceuticals, Inc., priority 1999, dated 2005) are described below.

One assay has as its target T1, Human α-thrombin (Homo sapiens, UniProt P00734).
T1 construct: Human α-thrombin, and human factor Xa were obtained from Enzyme Research Laboratories; purchased Enzyme Research Laboratories (South Bend, Indiana)
In words: In vitro inhibition of purified thrombin (p-nitroanilide substrate hydrolysis, Ki determination). Type of assay: biochemical. As to conditions: substrate N-succinyl-Ala-Ala-Pro-Arg-p-nitroanilide, pH 7.5, 37° C.; read-out: Ki against thrombin. The text has this:
(§1) Reagents: All buffer salts were obtained from Sigma Chemical Company (St. Louis, Mo.), and were of the highest purity available. The enzyme substrates, N-benzoyl-Phe-Val-Arg-p-nitroanilide (Sigma B7632), N-benzoyl-Ile-Glu-Gly-Arg-p-nitroanilide hydrochloride (Sigma B2291), N-p-Tosyl-Gly-Pro-Lys-p-nitroanilide (Sigma T6140), N-succinyl-Ala-Ala-Pro-Phe-p-nitroanilide (Sigma S7388) and N-CBZ-Val-Gly-Arg-p-nitroanilide (Sigma C7271) were obtained from Sigma. N-succinyl-Ala-Ala-Pro-Arg-p-nitroanilide (BACHEM L-1720) and N-succinyl-Ala-Ala-Pro-Val-p-nitroanilide (BACHEM L-1770) were obtained from BACHEM (King of Prussia, Pa.).
(§2) Human α-thrombin, and human factor Xa were obtained from Enzyme Research Laboratories (South Bend, Indiana). Bovine α-chymotrypsin (Sigma C4129), bovine trypsin (Sigma T8642) and human kidney cell urokinase (Sigma U5004) were obtained from Sigma. Human leukocyte elastase was obtained from Elastin Products (Pacific, Mo.).
(§3) Ki Determinations: All assays are based on the ability of the test compound to inhibit the enzyme catalyzed hydrolysis of a peptide p-nitroanilide substrate. […] In general, substrate concentrations are lower than the experimentally determined value for Km. […]
(§4) In a typical Ki determination, into each well of a 96 well plate is pipetted […] of substrate solution, […] of test compound solution, and the plate allowed to thermally equilibrate at 37° C. in a Molecular Devices plate reader for >15 minutes. Reactions were initiated by the addition of a […] aliquot of enzyme and the absorbance increase at 405 nm is recorded for 15 minutes. […] The ratio of the velocity (rate of change in absorbance as a function of time) for a sample containing no test compound is divided by the velocity of a sample containing test compound, and is plotted as a function of test compound concentration. The data are fit to a linear regression, and the value of the slope of the line calculated. The inverse of the slope is the experimentally determined Ki value. […]

A further assay deals with T2, human factor Xa (Homo sapiens, UniProt P00742).
T2 construct: purchased Enzyme Research Laboratories (South Bend, Indiana)
In words: In vitro inhibition of purified factor Xa (p-nitroanilide substrate hydrolysis, Ki determination). The class given is biochemical. Conditions: for Ki: substrate N-benzoyl-Ile-Glu-Gly-Arg-p-nitroanilide hydrochloride, pH 7.5, 37° C., read-out: Ki against factor Xa.
From the text: as §1, §2, §3, §4

T2 sequence (P00742 235-488 limits assumed): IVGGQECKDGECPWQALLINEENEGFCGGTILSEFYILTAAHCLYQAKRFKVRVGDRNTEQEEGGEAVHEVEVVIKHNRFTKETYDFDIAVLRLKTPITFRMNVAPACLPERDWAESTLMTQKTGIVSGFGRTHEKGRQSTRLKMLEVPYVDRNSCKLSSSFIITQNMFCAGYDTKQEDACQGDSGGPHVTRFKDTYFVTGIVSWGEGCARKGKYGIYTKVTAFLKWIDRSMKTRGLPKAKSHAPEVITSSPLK
T2 sequence (P00742 41-179 partner limits assumed): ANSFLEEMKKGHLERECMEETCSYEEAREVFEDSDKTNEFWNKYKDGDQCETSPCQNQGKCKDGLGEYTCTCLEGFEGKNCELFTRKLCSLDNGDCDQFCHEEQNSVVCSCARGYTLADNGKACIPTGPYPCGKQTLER

One may read the Ki as the dissociation constant of the complex between target and ligand, obtained from inhibition or displacement. On to `N=C(N)NOCCNC(=O)CN1CCC[C@H](NS(=O)(=O)Cc2ccccc2)C1=O` [Example 2], for which, at Human α-thrombin, the Ki came to 700 nM. The “activity against factor Xa” value at human factor Xa (at a concentration of 10 μM) is “no activity”.
On to `COc1ccc(S(=O)(=O)N[C@H]2CCCN(CC(=O)NCCONC(=N)N)C2=O)cc1` [Example 11], for which the Ki was 1200 nM on Human α-thrombin and 2100 nM at human factor Xa.
The like results for `N=C(N)NOCCNC(=O)CN1CCC[C@H](NS(=O)(=O)c2ccc(-c3ccc4ccccc4c3)cc2)C1=O` [Example 42] were, in that order, 6400 nM and 360 nM.
